Assay results as given in paper PMC3242765, “Inhibitors of Alphavirus Entry and Replication Identified with a Stable Chikungunya Replicon Cell Line and Virus-Based Assays” (PLoS ONE, 2011).
Structures can show the parent of a compound that is named as a salt.

How the values were obtained:
[1] = system: SFV-Rluc
[2] = system: CHIKV replicon; assay: microbe, parasite or virus in culture; assay type: cell-based, Chikungunya virus (CHIKV)

CC(C)[N+](C)(CCOC(=O)C1c2ccccc2Oc2ccccc21)C(C)C [Propantheline bromide]
SFV replication % left (surviving fraction, remaining percentage of SFV replication) [1]: 77.0% | CHIKV replicon % left [2]: 104.2%

CC(C)NCC(O)COc1cccc2ccccc12 (stereo not drawn) [Propranolol hydrochloride]
SFV replication % left (surviving fraction, remaining percentage of SFV replication) [1]: 74.0% | CHIKV replicon % left [2]: 105.4%

Cc1c(C(C)C)c(=O)n(-c2ccccc2)n1C [Propyphenazone]
SFV replication % left (surviving fraction, remaining percentage of SFV replication) [1]: 50.9% | CHIKV replicon % left [2]: 81.1%

CN(C)CCCN1c2ccccc2Sc2cccnc21.Cl [Prothipendyl hydrochloride]
SFV replication % left (surviving fraction, remaining percentage of SFV replication) [1]: 7.4% | CHIKV replicon % left [2]: 11.2%

CC(Cc1ccc2c(c1)OCO2)NCC(O)c1ccc(O)c(O)c1 (stereo not drawn) [Protokylol hydrochloride]
SFV replication % left (surviving fraction, remaining percentage of SFV replication) [1]: 128.4% | CHIKV replicon % left [2]: 85.4%

Cc1ncc(CO)c(CO)c1O [Pyridoxine hydrochloride]
SFV replication % left (surviving fraction, remaining percentage of SFV replication) [1]: 100.9% | CHIKV replicon % left [2]: 71.1%

COc1ccc(CN(CCN(C)C)c2ccccn2)cc1 [Pyrilamine maleate]
SFV replication % left (surviving fraction, remaining percentage of SFV replication) [1]: 73.7% | CHIKV replicon % left [2]: 85.4%

O=c1c(O)c(-c2ccc(O)c(O)c2)oc2cc(O)c(O)c(O)c12 [Quercetagetin]
SFV replication % left (surviving fraction, remaining percentage of SFV replication) [1]: 90.2% | CHIKV replicon % left [2]: 85.2%

COc1cc(O)c2c(=O)c(OC)c(-c3ccc(OC)c(OC)c3)oc2c1 [Quercetin-3,7,3',4'-tetramethylether]
SFV replication % left (surviving fraction, remaining percentage of SFV replication) [1]: 65.0% | CHIKV replicon % left [2]: 58.2%

O=c1c(O)c(-c2ccc(O)c(O)c2)oc2cc(O)cc(O)c12 [Quercetin]
SFV replication % left (surviving fraction, remaining percentage of SFV replication) [1]: 125.8% | CHIKV replicon % left [2]: 110.2%

C[C@@H]1O[C@@H](Oc2c(-c3ccc(O)c(O)c3)oc3cc(O)cc(O)c3c2=O)[C@H](O)[C@H](O)[C@H]1O.O.O [Quercitrin dihydrate]
SFV replication % left (surviving fraction, remaining percentage of SFV replication) [1]: 11.4% | CHIKV replicon % left [2]: 45.2%

Oc1cccc(O)c1 [Resorcin]
SFV replication % left (surviving fraction, remaining percentage of SFV replication) [1]: 83.0% | CHIKV replicon % left [2]: 72.2%

Oc1cccc(O)c1 [Resorcinol]
SFV replication % left (surviving fraction, remaining percentage of SFV replication) [1]: 67.1% | CHIKV replicon % left [2]: 102.9%

Oc1ccc(/C=C/c2cc(O)cc(O)c2)cc1 [Resveratrol]
SFV replication % left (surviving fraction, remaining percentage of SFV replication) [1]: 103.4% | CHIKV replicon % left [2]: 79.8%

COc1cc(O)c2c(=O)c(O)c(-c3ccc(O)c(O)c3)oc2c1 [Rhamnetin]
SFV replication % left (surviving fraction, remaining percentage of SFV replication) [1]: 119.1% | CHIKV replicon % left [2]: 94.7%

Cc1cc2nc3c(=O)[nH]c(=O)nc-3n(C[C@H](O)[C@H](O)[C@H](O)CO)c2cc1C [Riboflavin]
SFV replication % left (surviving fraction, remaining percentage of SFV replication) [1]: 43.1% | CHIKV replicon % left [2]: 63.1%

O=C(/C=C/c1ccc(O)c(O)c1)O[C@H](Cc1ccc(O)c(O)c1)C(=O)O [Rosmarinic acid]
SFV replication % left (surviving fraction, remaining percentage of SFV replication) [1]: 120.3% | CHIKV replicon % left [2]: 98.8%

C[C@@H]1O[C@@H](OC[C@H]2O[C@@H](Oc3c(-c4ccc(O)c(O)c4)oc4cc(O)cc(O)c4c3=O)[C@H](O)[C@@H](O)[C@@H]2O)[C@H](O)[C@H](O)[C@H]1O [Rutin]
SFV replication % left (surviving fraction, remaining percentage of SFV replication) [1]: 44.1% | CHIKV replicon % left [2]: 49.5%

CC(C)(C)NCC(O)c1ccc(O)c(CO)c1 (stereo not drawn) [Salbutamol]
SFV replication % left (surviving fraction, remaining percentage of SFV replication) [1]: 151.4% | CHIKV replicon % left [2]: 78.4%

NC(=O)c1ccccc1O [Salicylamide]
SFV replication % left (surviving fraction, remaining percentage of SFV replication) [1]: 126.2% | CHIKV replicon % left [2]: 38.2%

O=C(O)c1ccccc1O [Salicylic acid]
SFV replication % left (surviving fraction, remaining percentage of SFV replication) [1]: 69.1% | CHIKV replicon % left [2]: 78.2%

O=C(Oc1ccccc1C(=O)O)c1ccccc1O [Salicylsalicylic acid]
SFV replication % left (surviving fraction, remaining percentage of SFV replication) [1]: 127.4% | CHIKV replicon % left [2]: 88.9%

CC1=C2[C@H]3OC(=O)[C@@H](C)[C@@H]3CC[C@@]2(C)C=CC1=O [Santonin]
SFV replication % left (surviving fraction, remaining percentage of SFV replication) [1]: 99.9% | CHIKV replicon % left [2]: 101.9%

COc1cc2ccc(=O)oc2cc1O [Scopoletin]
SFV replication % left (surviving fraction, remaining percentage of SFV replication) [1]: 81.9% | CHIKV replicon % left [2]: 95.4%

C#CCN(C)[C@H](C)Cc1ccccc1 [Selegiline hydrochloride]
SFV replication % left (surviving fraction, remaining percentage of SFV replication) [1]: 57.0% | CHIKV replicon % left [2]: 43.1%

COc1cc(/C=C/C(=O)O)cc(OC)c1O [Sinapic acid]
SFV replication % left (surviving fraction, remaining percentage of SFV replication) [1]: 22.0% | CHIKV replicon % left [2]: 51.4%

C=CC/C(=N/OS(=O)(=O)[O-])S[C@@H]1O[C@H](CO)[C@@H](O)[C@H](O)[C@H]1O.O.[K+] [Sinigrin monohydrate]
SFV replication % left (surviving fraction, remaining percentage of SFV replication) [1]: 47.6% | CHIKV replicon % left [2]: 99.2%

CC(C)NCC(O)c1ccc(NS(C)(=O)=O)cc1 (stereo not drawn) [Sotalol hydrochloride]
SFV replication % left (surviving fraction, remaining percentage of SFV replication) [1]: 100.5% | CHIKV replicon % left [2]: 80.1%

CC(=O)NS(=O)(=O)c1ccc(N)cc1 [Sulfacetamide]
SFV replication % left (surviving fraction, remaining percentage of SFV replication) [1]: 100.8% | CHIKV replicon % left [2]: 50.4%

Nc1ccc(S(=O)(=O)Nc2ncccn2)cc1 [Sulfadiazine]
SFV replication % left (surviving fraction, remaining percentage of SFV replication) [1]: 107.7% | CHIKV replicon % left [2]: 81.2%

COc1cc(NS(=O)(=O)c2ccc(N)cc2)nc(OC)n1 [Sulfadimethoxine]
SFV replication % left (surviving fraction, remaining percentage of SFV replication) [1]: 102.4% | CHIKV replicon % left [2]: 39.1%

CCc1nnc(NS(=O)(=O)c2ccc(N)cc2)s1 [Sulfaethidole]
SFV replication % left (surviving fraction, remaining percentage of SFV replication) [1]: 106.4% | CHIKV replicon % left [2]: 100.4%

[H]/N=C(/N)NS(=O)(=O)c1ccc(N)cc1 [Sulfaguanidine]
SFV replication % left (surviving fraction, remaining percentage of SFV replication) [1]: 63.5% | CHIKV replicon % left [2]: 62.1%

Cc1ccnc(NS(=O)(=O)c2ccc(N)cc2)n1 [Sulfamerazine]
SFV replication % left (surviving fraction, remaining percentage of SFV replication) [1]: 83.8% | CHIKV replicon % left [2]: 91.1%

COc1cnc(NS(=O)(=O)c2ccc(N)cc2)nc1 [Sulfameter]
SFV replication % left (surviving fraction, remaining percentage of SFV replication) [1]: 99.0% | CHIKV replicon % left [2]: 79.2%

Cc1cc(C)nc(NS(=O)(=O)c2ccc(N)cc2)n1 [Sulfamethazine]
SFV replication % left (surviving fraction, remaining percentage of SFV replication) [1]: 91.7% | CHIKV replicon % left [2]: 100.5%

Cc1nnc(NS(=O)(=O)c2ccc(N)cc2)s1 [Sulfamethizole]
SFV replication % left (surviving fraction, remaining percentage of SFV replication) [1]: 100.4% | CHIKV replicon % left [2]: 79.1%

Cc1cc(NS(=O)(=O)c2ccc(N)cc2)no1 [Sulfamethoxazole]
SFV replication % left (surviving fraction, remaining percentage of SFV replication) [1]: 77.5% | CHIKV replicon % left [2]: 100.5%

COc1ccc(NS(=O)(=O)c2ccc(N)cc2)nn1 [Sulfamethoxypyridazine]
SFV replication % left (surviving fraction, remaining percentage of SFV replication) [1]: 110.0% | CHIKV replicon % left [2]: 82.0%

Cc1nnc(NS(=O)(=O)c2ccc(N)cc2)s1 [Sulfamethylthiadiazole]
SFV replication % left (surviving fraction, remaining percentage of SFV replication) [1]: 89.6% | CHIKV replicon % left [2]: 92.1%

Cc1nc(NS(=O)(=O)c2ccc(N)cc2)oc1C [Sulfamoxole]
SFV replication % left (surviving fraction, remaining percentage of SFV replication) [1]: 83.0% | CHIKV replicon % left [2]: 80.2%

Nc1ccc(S(N)(=O)=O)cc1 [Sulfanilamide]
SFV replication % left (surviving fraction, remaining percentage of SFV replication) [1]: 64.2% | CHIKV replicon % left [2]: 100.5%

NC(=O)NS(=O)(=O)c1ccc(N)cc1.O [Sulfaninyl urea hydrate]
SFV replication % left (surviving fraction, remaining percentage of SFV replication) [1]: 120.2% | CHIKV replicon % left [2]: 92.8%

Cc1cnc(NS(=O)(=O)c2ccc(N)cc2)nc1 [Sulfaperine]
SFV replication % left (surviving fraction, remaining percentage of SFV replication) [1]: 127.8% | CHIKV replicon % left [2]: 100.8%

Nc1ccc(S(=O)(=O)Nc2ccccn2)cc1 [Sulfapyridine]
SFV replication % left (surviving fraction, remaining percentage of SFV replication) [1]: 95.0% | CHIKV replicon % left [2]: 79.9%

Nc1ccc(S(=O)(=O)Nc2nccs2)cc1 [Sulfathiazole]
SFV replication % left (surviving fraction, remaining percentage of SFV replication) [1]: 138.1% | CHIKV replicon % left [2]: 78.5%

Cc1noc(NS(=O)(=O)c2ccc(N)cc2)c1C [Sulfisoxazole]
SFV replication % left (surviving fraction, remaining percentage of SFV replication) [1]: 91.4% | CHIKV replicon % left [2]: 104.5%

CCS(=O)(=O)C(C)(C)S(=O)(=O)CC [Sulfonmethane]
SFV replication % left (surviving fraction, remaining percentage of SFV replication) [1]: 86.6% | CHIKV replicon % left [2]: 102.7%

COc1cc(C(=O)O)cc(OC)c1O [Syringic acid]
SFV replication % left (surviving fraction, remaining percentage of SFV replication) [1]: 61.1% | CHIKV replicon % left [2]: 54.4%

CC(C)(C)NCC(O)COc1ccc(NC(=O)NC2CCCCC2)cc1 (stereo not drawn) [Talinolol]
SFV replication % left (surviving fraction, remaining percentage of SFV replication) [1]: 76.9% | CHIKV replicon % left [2]: 91.8%

CN1C(=O)C(O)N=C(c2ccccc2)c2cc(Cl)ccc21 (stereo not drawn) [Temazepam]
SFV replication % left (surviving fraction, remaining percentage of SFV replication) [1]: 91.5% | CHIKV replicon % left [2]: 79.5%

CC(C)(C)NCC(O)c1cc(O)cc(O)c1.CC(C)(C)NCC(O)c1cc(O)cc(O)c1.O=S(=O)(O)O (stereo not drawn) [Terbutaline hemisulfate salt]
SFV replication % left (surviving fraction, remaining percentage of SFV replication) [1]: 97.5% | CHIKV replicon % left [2]: 87.2%

CCCCNc1ccc(C(=O)OCCN(C)C)cc1 [Tetracaine hydrochloride]
SFV replication % left (surviving fraction, remaining percentage of SFV replication) [1]: 102.8% | CHIKV replicon % left [2]: 71.1%

Cn1cnc2c1c(=O)[nH]c(=O)n2C [Theobromine]
SFV replication % left (surviving fraction, remaining percentage of SFV replication) [1]: 112.1% | CHIKV replicon % left [2]: 70.2%

Cn1c(=O)c2[nH]cnc2n(C)c1=O [Theophylline]
SFV replication % left (surviving fraction, remaining percentage of SFV replication) [1]: 87.8% | CHIKV replicon % left [2]: 100.4%

Cc1ncc(C[n+]2csc(CCO)c2C)c(N)n1.O=[N+]([O-])[O-] [Thiamine mononitrate]
SFV replication % left (surviving fraction, remaining percentage of SFV replication) [1]: 95.2% | CHIKV replicon % left [2]: 85.0%

Cc1ccc(C(C)C)c(O)c1 [Thymol]
SFV replication % left (surviving fraction, remaining percentage of SFV replication) [1]: 42.0% | CHIKV replicon % left [2]: 71.1%
